Values of other authors in patent publication US20210268001A1, “USE OF MIOTIC C[…] F2a PRO[…] FOR PREVENTION AND TREATMENT OF MYOPIA” (priority 2018, published 2021).

How the values were obtained:
[1] = test system: corneal epithelium epithelial cells
cholinergic receptors = test system: cholinergic receptors; parameters: unit not given here; settings: reversible acetylcholinesterase inhibitors

Structure (SMILES) | cytotoxic effect on epithelial cells ([1]; high concentration of NO (100 mM NaNO2), over the same period (6 hs)) | viability of epithelial cells ([1]; low concentrations of NO (1 nM to 1 mM NaNO2), 6 hs after application) | action time (cholinergic receptors)
O=N[O-].[Na+] [NaNO2] | cytotoxic effect | significantly increased | 
COc1cc2c(cc1OC)C(=O)C(CC1CCN(Cc3ccccc3)CC1)C2 (stereo not shown) [donepezil] |  |  | one to two
CC[N+](C)(C)c1cccc(O)c1 [edrophonium] |  |  | one to two
CN(C)C(=O)Oc1cccc([N+](C)(C)C)c1 [neostigmine] |  |  | one to two
CN(C)C(=O)Oc1ccc[n+](C)c1 [pyridostigmine] |  |  | one to two
CCN(C)C(=O)Oc1cccc([C@H](C)N(C)C)c1 [rivastigmine] |  |  | one to two
